Experimental data from PubChem BioAssay (NCI).
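1) Cells in 96-well plates. 2) Compound, 48 h, 5 concentrations. 3) Linear interpolation between surrounding doses. 4) Unreached endpoint = highest concentration. GI50 marks 50% less growth. The concentration for full growth arrest is given as TGI.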

What was measured:
Assay in all cases: NCI anticancer screen, dose series, 48 h
[1] = system: SF-539 CNS
[2] = system: KM12 colon
[3] = system: HL-60(TB) leukemia
[4] = system: RXF 393 renal
[5] = system: SK-MEL-5 melanoma
[6] = system: ACHN renal
[7] = system: A498 renal
[8] = system: OVCAR-5 ovarian
[9] = system: RPMI-8226 leukemia
[10] = system: M14 melanoma

SMILES: Cc1cc(=O)oc2c(C3=NN(C=O)C(c4ccccc4)C3)c(O)ccc12 (centres undefined)
- TGI [1]: > 94.4 µM
- TGI [2]: > 100 µM
- TGI [3]: > 100 µM
- TGI [4]: > 80.5 µM
- TGI [5]: > 100 µM
- TGI [6]: > 42.8 µM
- TGI [7]: > 92.9 µM
- TGI [8]: > 100 µM
- TGI [9]: > 100 µM
- TGI [10]: > 95.9 µM

SMILES: COc1ccc(-n2cc(-c3cc(OC)c(OC)c(OC)c3)nc2SCc2ccc(Cl)cc2)cc1OC
- GI50 [1]: > 100 µM
- TGI [1]: > 100 µM
- GI50 [2]: > 100 µM
- TGI [2]: > 100 µM
- GI50 [3]: 78 µM
- TGI [3]: > 100 µM
- GI50 [4]: > 100 µM
- TGI [4]: > 100 µM
- GI50 [5]: 41.7 µM
- TGI [5]: > 100 µM
- GI50 [6]: > 100 µM
- TGI [6]: > 100 µM
- GI50 [7]: 89 µM
- TGI [7]: > 100 µM
- GI50 [8]: > 100 µM
- TGI [8]: > 100 µM
- GI50 [9]: > 100 µM
- TGI [9]: > 100 µM
- GI50 [10]: > 100 µM
- TGI [10]: > 100 µM

SMILES: Oc1ccc(NC(=S)Nc2ccccc2)cc1
- GI50 [1]: > 100 µM
- TGI [1]: > 100 µM
- GI50 [2]: > 100 µM
- TGI [2]: > 100 µM
- GI50 [3]: > 100 µM
- TGI [3]: > 100 µM
- GI50 [4]: > 100 µM
- TGI [4]: > 100 µM
- GI50 [5]: > 100 µM
- TGI [5]: > 100 µM
- GI50 [6]: > 100 µM
- TGI [6]: > 100 µM
- GI50 [7]: > 100 µM
- TGI [7]: > 100 µM
- GI50 [8]: > 100 µM
- TGI [8]: > 100 µM
- GI50 [9]: > 100 µM
- TGI [9]: > 100 µM
- GI50 [10]: > 100 µM
- TGI [10]: > 100 µM

SMILES: C=CC(=O)N[C@@H]1CN(c2nc(Nc3cn(C)nc3OC)c3ncn(C)c3n2)C[C@H]1F
- GI50 [1]: 28.1 µM
- TGI [1]: > 100 µM
- GI50 [2]: 33.6 µM
- TGI [2]: > 100 µM
- GI50 [3]: 27.8 µM
- TGI [3]: 78.5 µM
- GI50 [4]: 34.1 µM
- TGI [4]: > 84.5 µM
- GI50 [5]: 24.8 µM
- TGI [5]: > 59.8 µM
- GI50 [6]: 0.506 µM
- TGI [6]: > 100 µM
- GI50 [7]: 16.4 µM
- TGI [7]: 67.7 µM
- GI50 [8]: 11.5 µM
- TGI [8]: > 100 µM
- GI50 [9]: > 71.7 µM
- TGI [9]: > 100 µM
- GI50 [10]: 18.7 µM
- TGI [10]: 61.6 µM

SMILES: COC(=O)C(=O)C(CC(=O)Nc1cc(Cl)ccc1Cl)C(=O)OC (centres undefined)
- TGI [1]: > 100 µM
- TGI [2]: > 100 µM
- TGI [3]: > 100 µM
- TGI [4]: > 100 µM
- TGI [5]: > 100 µM
- TGI [6]: > 100 µM
- TGI [7]: > 100 µM
- TGI [8]: > 100 µM
- TGI [9]: > 100 µM
- TGI [10]: > 100 µM

SMILES: CCOC(=O)c1oc2c(OC)ccc3c2c1CCC3
- TGI [1]: > 100 µM
- TGI [2]: > 100 µM
- TGI [3]: > 100 µM
- TGI [4]: > 100 µM
- TGI [5]: > 100 µM
- TGI [6]: > 100 µM
- TGI [7]: > 100 µM
- TGI [8]: > 100 µM
- TGI [9]: > 100 µM
- TGI [10]: > 100 µM

SMILES: Cc1cccc(C(C)(C)C)c1NC(=O)C(C#N)C1=C(Cl)C(=O)c2ccccc2C1=O (centres undefined)
- TGI [1]: 32.5 µM
- TGI [2]: 31.3 µM
- TGI [3]: 26 µM
- TGI [4]: 30.6 µM
- TGI [5]: 31.5 µM
- TGI [6]: 27.6 µM
- TGI [7]: 44.4 µM
- TGI [8]: 32 µM
- TGI [9]: 49.2 µM
- TGI [10]: 32.5 µM

SMILES: CCCCC(C(=O)C(=O)Nc1ccc(C)cc1C)C(=O)C(C)C (centres undefined)
- TGI [1]: > 100 µM
- TGI [2]: > 100 µM
- TGI [3]: > 100 µM
- TGI [4]: > 100 µM
- TGI [5]: > 100 µM
- TGI [6]: > 100 µM
- TGI [7]: > 100 µM
- TGI [8]: > 100 µM
- TGI [9]: > 100 µM
- TGI [10]: > 100 µM

SMILES: Clc1ccc(-c2cc(-c3ccccc3)nc(N3CCN(CCCNc4ccnc5cc(Cl)ccc45)CC3)n2)cc1
- GI50 [1]: 1.79 µM
- TGI [1]: 3.25 µM
- GI50 [2]: 1.68 µM
- TGI [2]: 3.2 µM
- GI50 [3]: 1 µM
- TGI [3]: 2.83 µM
- GI50 [4]: 1.25 µM
- TGI [4]: 2.58 µM
- GI50 [5]: 1.67 µM
- TGI [5]: 3.06 µM
- GI50 [6]: 1.61 µM
- TGI [6]: 2.96 µM
- GI50 [7]: 1.48 µM
- TGI [7]: 2.81 µM
- GI50 [8]: 1.66 µM
- TGI [8]: 3.08 µM
- GI50 [9]: 1.74 µM
- TGI [9]: 4.41 µM
- GI50 [10]: 1.87 µM
- TGI [10]: 3.53 µM

SMILES: O=C1/C(=C/c2cccnc2)SC(=S)N1Cc1ccco1
- TGI [1]: 6.12 µM
- TGI [2]: 14.5 µM
- TGI [3]: > 22 µM
- TGI [4]: 24.2 µM
- TGI [5]: > 51 µM
- TGI [6]: > 48.9 µM
- TGI [7]: 70.6 µM
- TGI [8]: > 81.7 µM
- TGI [9]: > 23.7 µM
- TGI [10]: > 100 µM

SMILES: CCc1cccc(C(C)C)c1NC(=O)CC1Sc2ccccc2NC1=O (centres undefined)
- TGI [1]: > 100 µM
- TGI [2]: > 100 µM
- TGI [3]: 50 µM
- TGI [4]: 96.3 µM
- TGI [5]: > 100 µM
- TGI [6]: > 100 µM
- TGI [7]: > 100 µM
- TGI [8]: > 100 µM
- TGI [9]: > 100 µM
- TGI [10]: > 100 µM

SMILES: NCCOc1ccc(/C(=C(/Cl)c2ccccc2)c2ccccc2)cc1
- TGI [1]: 28.9 µM
- TGI [2]: 16.7 µM
- TGI [3]: 7.61 µM
- TGI [4]: 13.8 µM
- TGI [5]: 22.3 µM
- TGI [6]: 27.2 µM
- TGI [7]: 34.1 µM
- TGI [8]: 30.8 µM
- TGI [9]: 11 µM
- TGI [10]: 5.29 µM

SMILES: Oc1ccc2ccccc2c1CCc1c(O)ccc2ccccc12
- TGI [1]: 30.3 µM
- TGI [2]: 24.8 µM
- TGI [3]: 40.9 µM
- TGI [4]: 27.5 µM
- TGI [5]: 25.7 µM
- TGI [6]: 30 µM
- TGI [7]: 38.2 µM
- TGI [8]: 27.2 µM
- TGI [9]: 22 µM
- TGI [10]: 29.5 µM

SMILES: COc1ccc(C(=O)/C=C/c2sc(Cl)nc2Cl)cc1
- GI50 [1]: 1.56 µM
- TGI [1]: 4.26 µM
- GI50 [2]: 2.75 µM
- TGI [2]: 7.54 µM
- GI50 [3]: 1.95 µM
- TGI [3]: 4.63 µM
- GI50 [4]: 1.28 µM
- TGI [4]: 3.02 µM
- GI50 [5]: 1.53 µM
- TGI [5]: 4.15 µM
- GI50 [6]: 1.66 µM
- TGI [6]: 3.05 µM
- GI50 [7]: 4.67 µM
- TGI [7]: 20.2 µM
- GI50 [8]: 3.01 µM
- TGI [8]: 13.3 µM
- GI50 [9]: 1.36 µM
- TGI [9]: 4.77 µM
- GI50 [10]: 0.466 µM
- TGI [10]: 2.96 µM

SMILES: C[C@@H]1CC[C@H]2[C@@H](C)C(O)O[C@@H]3O[C@]4(C)CC[C@@H]1[C@]32OO4 (some centres undefined)
- GI50 [1]: 0.868 µM
- TGI [1]: 14.2 µM
- GI50 [2]: 0.213 µM
- TGI [2]: 8.78 µM
- GI50 [3]: 0.176 µM
- TGI [3]: 0.517 µM
- GI50 [4]: 1.15 µM
- TGI [4]: 17.8 µM
- GI50 [5]: 0.53 µM
- TGI [5]: 16.6 µM
- GI50 [6]: 1.26 µM
- TGI [6]: 13 µM
- GI50 [7]: 2.89 µM
- TGI [7]: > 96.6 µM
- GI50 [8]: 0.735 µM
- TGI [8]: 39.4 µM
- GI50 [9]: 0.143 µM
- GI50 [10]: 1.24 µM
- TGI [10]: 24.2 µM

SMILES: N#CCCN(CCC#N)c1ccc(/C=C(/NC(=O)c2cc([N+](=O)[O-])ccc2Cl)C(=O)N=[N+]=[N-])cc1
- TGI [1]: > 100 µM
- TGI [2]: > 100 µM
- TGI [3]: > 100 µM
- TGI [4]: > 100 µM
- TGI [5]: > 100 µM
- TGI [6]: > 100 µM
- TGI [7]: > 100 µM
- TGI [8]: > 100 µM
- TGI [9]: > 100 µM
- TGI [10]: > 100 µM
